Experimental data reported in the NIST ThermoML archive (doi:10.1021/je049579x).
Where “and” joins values, the source holds several entries; their conditions need not be identical. Identical values can stand only once.

Settings: Torsion effusion method

[I][Yb][I] [ytterbium(II) iodide]
Settings | vapor or sublimation pressure
968 K, Crystal | 1.9e-05 kPa
975 K, Crystal | 2.8e-05 kPa
976 K, Crystal | 2.8e-05 kPa
978 K, Crystal | 3.8e-05 kPa
982 K, Crystal | 3.8e-05 kPa
987 K, Crystal | 3.8e-05 kPa
989 K, Crystal | 3.8e-05 kPa and 4.8e-05 kPa and 5.6e-05 kPa
991 K, Crystal | 4.8e-05 kPa
996 K, Crystal | 5.6e-05 kPa and 6.6e-05 kPa
997 K, Crystal | 6.3e-05 kPa
998 K, Crystal | 5.6e-05 kPa
999 K, Crystal | 5.6e-05 kPa
1003 K, Crystal | 6.3e-05 kPa
1005 K, Crystal | 8.5e-05 kPa
1006 K, Crystal | 7.6e-05 kPa and 7.9e-05 kPa
1008 K, Crystal | 6.3e-05 kPa and 7.6e-05 kPa
1011 K, Crystal | 8.5e-05 kPa
1013 K, Crystal | 7.9e-05 kPa and 0.000115 kPa
1014 K, Crystal | 9.3e-05 kPa
1015 K, Crystal | 9.5e-05 kPa
1017 K, Crystal | 9.5e-05 kPa
1019 K, Crystal | 9.3e-05 kPa
1020 K, Crystal | 0.000115 kPa
1021 K, Crystal | 0.000141 kPa
1022 K, Crystal | 0.000126 kPa
1023 K, Crystal | 0.00011 kPa
1025 K, Crystal | 0.000132 kPa
1026 K, Crystal | 0.000132 kPa
1029 K, Crystal | 0.000126 kPa
1030 K, Crystal | 0.000158 kPa and 0.000151 kPa and 0.000182 kPa
1034 K, Crystal | 0.00017 kPa
1035 K, Crystal | 0.000158 kPa and 0.00017 kPa and 0.000182 kPa
1038 K, Crystal | 0.000219 kPa
1039 K, Crystal | 0.000174 kPa and 0.000204 kPa
1040 K, Crystal | 0.000209 kPa
1043 K, Crystal | 0.000229 kPa [middle of 4 runs]
1046 K, Crystal | 0.000282 kPa
1049 K, Crystal | 0.000234 kPa and 0.000282 kPa
1068 K, Liquid | 0.000468 kPa
1073 K, Liquid | 0.000501 kPa
1078 K, Liquid | 0.000631 kPa
1082 K, Liquid | 0.000631 kPa
1087 K, Liquid | 0.000759 kPa
1092 K, Liquid | 0.000813 kPa
1098 K, Liquid | 0.001 kPa
1101 K, Liquid | 0.001 kPa
1103 K, Liquid | 0.001202 kPa
1108 K, Liquid | 0.00138 kPa
1111 K, Liquid | 0.001259 kPa
1112 K, Liquid | 0.001445 kPa
1117 K, Liquid | 0.001698 kPa
1119 K, Liquid | 0.001585 kPa
1122 K, Liquid | 0.001862 kPa
1127 K, Liquid | 0.002138 kPa
1128 K, Liquid | 0.001995 kPa
1132 K, Liquid | 0.002239 kPa
1137 K, Liquid | 0.002754 kPa
1138 K, Liquid | 0.002512 kPa
1143 K, Liquid | 0.002951 kPa
1148 K, Liquid | 0.003388 kPa and 0.00309 kPa
1152 K, Liquid | 0.003548 kPa
1158 K, Liquid | 0.004365 kPa and 0.003981 kPa
1162 K, Liquid | 0.004786 kPa
1168 K, Liquid | 0.005754 kPa and 0.005129 kPa
1173 K, Liquid | 0.006026 kPa
1179 K, Liquid | 0.006918 kPa and 0.006761 kPa
1183 K, Liquid | 0.007586 kPa
1189 K, Liquid | 0.00871 kPa
1192 K, Liquid | 0.008913 kPa
